These results are taken from ChEMBL document CHEMBL1132414, “New bicyclam-AZT conjugates: design, synthesis, anti-HIV evaluation, and their interaction with CXCR-4 coreceptor” (J Med Chem, 1999).

SMILES strings stand for the structures.

Data set [1] has as its system Human immunodeficiency virus 1. As to the kind of experiment: microbe, parasite or virus in culture. As to conditions: Human immunodeficiency virus 1, MT4.
Description: Concentration required to inhibit syncytia formation by 50% on HIV-1 infected MT-4 cells
Data set [2] is described as follows: physchem. As to conditions: octanol/water.
Description: Partition coefficient (logP)
Data set [3] in a line: in vitro. As to conditions: human, uninfected MT-4 cells.
Description: Concentration required to cause 50% death of uninfected MT-4 cells
The conditions of data set [4]: octanol/water.
Description: Partition coefficient (logP)

The compound `O=C(c1ccc(C(=O)N2CCCNCCNCCCNCC2)cc1)N1CCCNCCNCCCNCC1` returned an EC50 in data set [1] of 50 µM. The compound further displayed a logP in data set [2] of -2.11. The compound also had a CC50 in data set [3] of 100 µM.
As to `Cc1cn(C2CC(N=[N+]=[N-])C(COC(=O)CCCC(=O)N3CCCNCCNCCCNCC3)O2)c(=O)[nH]c1=O` (stereo not given), it took 0.01 µM to reach a half-maximal effect in data set [1] (EC50). In data set [2], this compound had a logP of 0.14. Further, the CC50 in data set [3] came to 100 µM.
The like results for `CC(C)(C)OC(=O)N1CCCN(C(=O)OC(C)(C)C)CCN(C(=O)c2ccc(C(=O)N3CCCN(C(=O)OC(C)(C)C)CCN(C(=O)OC(C)(C)C)CCCN(C(=O)OC(C)(C)C)CC3)cc2)CCCN(C(=O)OC(C)(C)C)CC1` were, in that order, 1 µM, 3.46 and 10 µM.
The corresponding values for `CC(C)(C)OC(=O)N1CCCN(C(=O)OC(C)(C)C)CCN(C(=O)OC(C)(C)C)CCCN(C(=O)CCCC(=O)N2CCCN(C(=O)OC(C)(C)C)CCN(C(=O)OC(C)(C)C)CCCN(C(=O)OC(C)(C)C)CC2)CC1` are more than 50 µM, 6.14 and 10 µM.
The like results for `Cc1cn(C2CC(N=[N+]=[N-])C(COC(=O)CCCCN3CCCN(Cc4ccc(CN5CCCN(C(=O)OC(C)(C)C)CCN(C(=O)OC(C)(C)C)CCCN(C(=O)OC(C)(C)C)CC5)cc4)CCN(C(=O)OC(C)(C)C)CCCN(C(=O)OC(C)(C)C)CC3)O2)c(=O)[nH]c1=O` (stereo not given) were, in that order, 0.005 µM, 5.7 and 5 µM.
`Cc1cn(C2CC(N=[N+]=[N-])C(COC(=O)CCCCN3CCCN(C(=O)c4ccc(C(=O)N5CCCN(C(=O)OC(C)(C)C)CCN(C(=O)OC(C)(C)C)CCCN(C(=O)OC(C)(C)C)CC5)cc4)CCN(C(=O)OC(C)(C)C)CCCN(C(=O)OC(C)(C)C)CC3)O2)c(=O)[nH]c1=O` (stereo not given) displayed an EC50 in data set [1] of 0.03 µM. In data set [2], this compound returned a logP of 2.69. Besides, the CC50 in data set [3] worked out at 0.5 µM.
`Cc1cn(C2CC(N=[N+]=[N-])C(COC(=O)CCCCN3CCCN(C(=O)CCCC(=O)N4CCCNCCNCCCNCC4)CCNCCCNCC3)O2)c(=O)[nH]c1=O` (stereo not given): it took 0.05 µM to reach a half-maximal effect in data set [1] (EC50). The compound further returned a logP in data set [2] of 1.81. For the same compound, it took 75 µM to reach half-maximal cytotoxicity in data set [3] (CC50).
In the case of `Cc1cn(C2CC(N=[N+]=[N-])C(COC(=O)CCCCN3CCCN(C(=O)CCCC(=O)N4CCCN(C(=O)OC(C)(C)C)CCN(C(=O)OC(C)(C)C)CCCN(C(=O)OC(C)(C)C)CC4)CCN(C(=O)OC(C)(C)C)CCCN(C(=O)OC(C)(C)C)CC3)O2)c(=O)[nH]c1=O` (stereo not given), in data set [1], the midpoint of the response, the EC50, lay at 0.05 µM. Also, the logP in data set [2] was 5.85. The CC50 in data set [3] was 5 µM.
For `Cc1cn(C2CC(N=[N+]=[N-])C(COC(=O)CCCC(=O)N3CCCN(C(=O)OC(C)(C)C)CCN(C(=O)OC(C)(C)C)CCCN(C(=O)OC(C)(C)C)CC3)O2)c(=O)[nH]c1=O` (stereo not given), a half-maximal response in data set [1] (EC50) required 0.05 µM. The same compound gave a logP in data set [2] of 2.68. In data set [3], the CC50 is 50 µM.
In turn, `c1cc(CN2CCCNCCNCCCNCC2)ccc1CN1CCCNCCNCCCNCC1` [PLERIXAFOR] had an EC50 in data set [1] of 10 µM. For the same compound, the logP in data set [4] was 0.89. Further, half-maximal cytotoxicity in data set [3] (CC50) was put at 50 µM.
As to `Cc1cn(C2CC(N=[N+]=[N-])C(COC(=O)CCCCN3CCCN(Cc4ccc(CN5CCCNCCNCCCNCC5)cc4)CCNCCCNCC3)O2)c(=O)[nH]c1=O` (stereo not given), in data set [1], the EC50 stood at 0.005 µM. Also, the logP in data set [2] was found to be 1.65. In data set [3], it took 75 µM to reach half-maximal cytotoxicity (CC50).
For `CC(C)(C)OC(=O)N1CCCN(C(=O)OC(C)(C)C)CCN(C(=O)OC(C)(C)C)CCCN(Cc2ccc(CN3CCCN(C(=O)OC(C)(C)C)CCN(C(=O)OC(C)(C)C)CCCN(C(=O)OC(C)(C)C)CC3)cc2)CC1`, the EC50 in data set [1] was 0.5 µM. This compound also came in with a logP in data set [2] of 6.47. In addition, the midpoint of cytotoxicity in data set [3], the CC50, lay at 5 µM.
The corresponding values for `Cc1cn(C2CC(N=[N+]=[N-])C(COC(=O)CCCCN3CCCNCCNCCCNCC3)O2)c(=O)[nH]c1=O` (stereo not given) are 0.01 µM, -0.21 and 30 µM.
For the compound `Cc1cn(C2CC(N=[N+]=[N-])C(COC(=O)CCCCN3CCCN(C(=O)c4ccc(C(=O)N5CCCNCCNCCCNCC5)cc4)CCNCCCNCC3)O2)c(=O)[nH]c1=O` (stereo not given), in data set [1], the EC50 was 0.01 µM. In addition, the logP in data set [2] is -1.35. The CC50 in data set [3] came out at 75 µM.
The like results for `O=C(CCCC(=O)N1CCCNCCNCCCNCC1)N1CCCNCCNCCCNCC1` were, in that order, 10 µM, 1.05 and 50 µM.

A word on the EC50: it is the concentration at which the effect is half-maximal. High values mean lower potency in that assay, low ones higher potency in that assay. In general, logP refers to the decadic logarithm of the partition coefficient of the neutral form, usually between octanol and water. One may read the CC50 as the concentration giving 50% cytotoxicity.
